Test results as given in ChEMBL document CHEMBL6078622, “Enhancing outer membrane permeability of tetracycline antibiotics in P. aeruginosa using TOB-CIP conjugates” (RSC Med Chem, 2024).
The source made the active and inactive calls. The calls are words filed in the database; no cut-off is given here.

Columns and labels:
Pseudomonas aeruginosa [1] = assay: Synergistic antibacterial activity against Pseudomonas aeruginosa PAO1 assessed as fold change in minocycline MIC by checkerboard analysis relative to minocycline alone; format: functional
Pseudomonas aeruginosa [2] = assay: Synergistic antibacterial activity against Pseudomonas aeruginosa PAO1 assessed as fold change in doxycycline MIC by checkerboard analysis relative to doxycycline alone; format: functional
Pseudomonas aeruginosa [3] = assay: Synergistic antibacterial activity against Pseudomonas aeruginosa PAO1 assessed as fold change in tigecycline MIC by checkerboard analysis relative to Tigecycline alone; format: functional
Pseudomonas aeruginosa [4] = assay: Antibacterial activity against Pseudomonas aeruginosa PA264 assessed as inhibition of visible bacterial growth by CLSI based broth-microdilution method; format: functional
Pseudomonas aeruginosa [5] = assay: Antibacterial activity against Pseudomonas aeruginosa PA101243 assessed as inhibition of visible bacterial growth by CLSI based broth-microdilution method; format: functional
Pseudomonas aeruginosa [6] = assay: Synergistic antibacterial activity against Pseudomonas aeruginosa PA259 in presence of tigecycline by checkerboard assay; format: functional
Pseudomonas aeruginosa [7] = assay: Synergistic antibacterial activity against Pseudomonas aeruginosa PA262 in presence of minocycline by checkerboard assay; format: functional
Pseudomonas aeruginosa [8] = assay: Synergistic antibacterial activity against Pseudomonas aeruginosa PA264 in presence of eravacycline by checkerboard assay; format: functional
Pseudomonas aeruginosa [9] = assay: Synergistic antibacterial activity against Pseudomonas aeruginosa PA100036 in presence of minocycline by checkerboard assay; format: functional
Pseudomonas aeruginosa [10] = assay: Synergistic antibacterial activity against Pseudomonas aeruginosa PA114228 in presence of minocycline by checkerboard assay; format: functional
Pseudomonas aeruginosa [11] = assay: Synergistic antibacterial activity against Pseudomonas aeruginosa PA114228 in presence of tigecycline by checkerboard assay; format: functional
Pseudomonas aeruginosa [12] = assay: Synergistic antibacterial activity against Pseudomonas aeruginosa PA114228 in presence of eravacycline by checkerboard assay; format: functional
Pseudomonas aeruginosa [13] = assay: Synergistic antibacterial activity against Pseudomonas aeruginosa PA101243 in presence of minocycline by checkerboard assay; format: functional
Pseudomonas aeruginosa [14] = assay: Synergistic antibacterial activity against Pseudomonas aeruginosa PA200 in presence of minocycline by checkerboard assay; format: functional
Pseudomonas aeruginosa [15] = assay: Antibacterial activity against Pseudomonas aeruginosa PA262 assessed as eravacycline MIC by CLSI based broth-microdilution method; format: functional
Pseudomonas aeruginosa [16] = assay: Antibacterial activity against Pseudomonas aeruginosa PA114228 assessed as tigecycline MIC by CLSI based broth-microdilution method; format: functional
Pseudomonas aeruginosa [17] = assay: Antibacterial activity against Pseudomonas aeruginosa PA101243 assessed as minocycline MIC by CLSI based broth-microdilution method; format: functional
Pseudomonas aeruginosa [18] = assay: Antibacterial activity against Pseudomonas aeruginosa PA101243 assessed as eravacycline MIC by CLSI based broth-microdilution method; format: functional
Pseudomonas aeruginosa [19] = assay: Antibacterial activity against Pseudomonas aeruginosa PA095 assessed as minocycline MIC by CLSI based broth-microdilution method; format: functional
Pseudomonas aeruginosa [20] = assay: Antibacterial activity against Pseudomonas aeruginosa PA095 assessed as tigecycline MIC by CLSI based broth-microdilution method; format: functional
Pseudomonas aeruginosa [21] = assay: Synergistic antibacterial activity against Pseudomonas aeruginosa PA264 assessed as fractional inhibitory concentration index in presence of tigecycline by checkerboard assay; format: functional
Pseudomonas aeruginosa [22] = assay: Synergistic antibacterial activity against Pseudomonas aeruginosa PA100036 assessed as fractional inhibitory concentration index in presence of minocycline by checkerboard assay; format: functional
Pseudomonas aeruginosa [23] = assay: Synergistic antibacterial activity against Pseudomonas aeruginosa PA114228 assessed as fractional inhibitory concentration index in presence of eravacycline by checkerboard assay; format: functional
Pseudomonas aeruginosa [24] = assay: Synergistic antibacterial activity against Pseudomonas aeruginosa PA095 assessed as fractional inhibitory concentration index in presence of minocycline by checkerboard assay; format: functional
Pseudomonas aeruginosa [25] = assay: Synergistic antibacterial activity against Pseudomonas aeruginosa PA095 assessed as fractional inhibitory concentration index in presence of eravacycline by checkerboard assay; format: functional
Pseudomonas aeruginosa [26] = assay: Synergistic antibacterial activity against Pseudomonas aeruginosa PA200 assessed as fractional inhibitory concentration index in presence of doxycycline by checkerboard assay; format: functional
Pseudomonas aeruginosa [27] = assay: Synergistic antibacterial activity against Pseudomonas aeruginosa PA200 assessed as fractional inhibitory concentration index in presence of tigecycline by checkerboard assay; format: functional
Pseudomonas aeruginosa [28] = assay: Synergistic antibacterial activity against Pseudomonas aeruginosa PA200 assessed as fractional inhibitory concentration index in presence of eravacycline by checkerboard assay; format: functional
Pseudomonas aeruginosa [29] = assay: Synergistic antibacterial activity against Pseudomonas aeruginosa PA259 assessed as fold change in doxycycline MIC by CLSI based broth-microdilution method relative to doxycycline alone; format: functional
Pseudomonas aeruginosa [30] = assay: Synergistic antibacterial activity against Pseudomonas aeruginosa PA259 assessed as fold change in tigecycline MIC by CLSI based broth-microdilution method relative to tigecycline alone; format: functional
Pseudomonas aeruginosa [31] = assay: Synergistic antibacterial activity against Pseudomonas aeruginosa PA264 assessed as fold change in eravacycline MIC by CLSI based broth-microdilution method relative to eravacycline alone; format: functional
Pseudomonas aeruginosa [32] = assay: Synergistic antibacterial activity against Pseudomonas aeruginosa PA100036 assessed as fold change in eravacycline MIC by CLSI based broth-microdilution method relative to eravacycline alone; format: functional
Pseudomonas aeruginosa [33] = assay: Synergistic antibacterial activity against Pseudomonas aeruginosa PA114228 assessed as fold change in minocycline MIC by CLSI based broth-microdilution method relative to minocycline alone; format: functional
Pseudomonas aeruginosa [34] = assay: Synergistic antibacterial activity against Pseudomonas aeruginosa PA114228 assessed as fold change in doxycycline MIC by CLSI based broth-microdilution method relative to doxycycline alone; format: functional
Pseudomonas aeruginosa [35] = assay: Synergistic antibacterial activity against Pseudomonas aeruginosa PA114228 assessed as fold change in eravacycline MIC by CLSI based broth-microdilution method relative to eravacycline alone; format: functional
Pseudomonas aeruginosa [36] = assay: Synergistic antibacterial activity against Pseudomonas aeruginosa PA101243 assessed as fold change in minocycline MIC by CLSI based broth-microdilution method relative to minocycline alone; format: functional
Pseudomonas aeruginosa [37] = assay: Synergistic antibacterial activity against Pseudomonas aeruginosa PA101243 assessed as fold change in tigecycline MIC by CLSI based broth-microdilution method relative to tigecycline alone; format: functional
Pseudomonas aeruginosa [38] = assay: Synergistic antibacterial activity against Pseudomonas aeruginosa PA101243 assessed as fold change in eravacycline MIC by CLSI based broth-microdilution method relative to eravacycline alone; format: functional
Pseudomonas aeruginosa [39] = assay: Synergistic antibacterial activity against Pseudomonas aeruginosa PA200 assessed as fold change in doxycycline MIC by CLSI based broth-microdilution method relative to doxycycline alone; format: functional
Pseudomonas aeruginosa [40] = assay: Synergistic antibacterial activity against Pseudomonas aeruginosa PA200 assessed as fold change in tigecycline MIC by CLSI based broth-microdilution method relative to tigecycline alone; format: functional
Pseudomonas aeruginosa [41] = assay: Synergistic antibacterial activity against Pseudomonas aeruginosa PA200 assessed as fold change in eravacycline MIC by CLSI based broth-microdilution method relative to eravacycline alone; format: functional
Pseudomonas aeruginosa [42] = assay: Antibacterial activity against Pseudomonas aeruginosa PAO1 assessed as inhibition of bacterial growth by measuring fold change in MIC in presence of 5 % fetal bovine serum by CLSI protocol based assay; format: functional
Pseudomonas aeruginosa [43] = assay: Antibacterial activity against Pseudomonas aeruginosa PA264 assessed as increase in bacterial load incubated for 2 hrs in presence of eravacycline by time kill assay; format: functional, organism-based
HEK293 = assay: Cytotoxicity against HEK293 cells assessed as reduction in cell viability at 7 uM; format: toxicity, cell-based; details: human, hek293, 7 µM
HepG2 = assay: Cytotoxicity against human HepG2 cells assessed as reduction in cell viability at 400 uM; format: functional, cell-based

SMILES: Cl.Cl.Cl.Cl.Cl.Cl.NC[C@H]1O[C@H](O[C@H]2[C@H](OCCCCCCCCCCCCNC(=O)c3cn(C4CC4)c4cc(N5CCNCC5)c(F)cc4c3=O)[C@@H](O[C@H]3O[C@H](CO)[C@@H](O)[C@H](N)[C@H]3O)[C@H](N)C[C@@H]2N)[C@H](N)C[C@@H]1O
- fold change (FC) (Pseudomonas aeruginosa [1]): 64
- fold change (FC) (Pseudomonas aeruginosa [2]): 64
- fold change (FC) (Pseudomonas aeruginosa [3]): 64
- MIC (Pseudomonas aeruginosa [4]): > 128 µg/mL
- MIC (Pseudomonas aeruginosa [5]): > 128 µg/mL
- MIC (Pseudomonas aeruginosa [6]): 8 µg/mL
- MIC (Pseudomonas aeruginosa [7]): 8 µg/mL
- MIC (Pseudomonas aeruginosa [8]): 8 µg/mL
- MIC (Pseudomonas aeruginosa [9]): 8 µg/mL
- MIC (Pseudomonas aeruginosa [10]): 8 µg/mL
- MIC (Pseudomonas aeruginosa [11]): 8 µg/mL
- MIC (Pseudomonas aeruginosa [12]): 8 µg/mL
- MIC (Pseudomonas aeruginosa [13]): 8 µg/mL
- MIC (Pseudomonas aeruginosa [14]): 8 µg/mL
- MIC (Pseudomonas aeruginosa [15]): 1 µg/mL
- MIC (Pseudomonas aeruginosa [16]): 16 µg/mL
- MIC (Pseudomonas aeruginosa [17]): 2 µg/mL
- MIC (Pseudomonas aeruginosa [18]): 2 µg/mL
- MIC (Pseudomonas aeruginosa [19]): 1 µg/mL
- MIC (Pseudomonas aeruginosa [20]): 2 µg/mL
- fractional inhibitory concentration index (FICI) (Pseudomonas aeruginosa [21]): 0.004
- fractional inhibitory concentration index (FICI) (Pseudomonas aeruginosa [22]): 0.015
- fractional inhibitory concentration index (FICI) (Pseudomonas aeruginosa [23]): 0.5
- fractional inhibitory concentration index (FICI) (Pseudomonas aeruginosa [24]): 0.5
- fractional inhibitory concentration index (FICI) (Pseudomonas aeruginosa [25]): 0.265
- fractional inhibitory concentration index (FICI) (Pseudomonas aeruginosa [26]): 0.257
- fractional inhibitory concentration index (FICI) (Pseudomonas aeruginosa [27]): 0.187
- fractional inhibitory concentration index (FICI) (Pseudomonas aeruginosa [28]): 0.156
- fold change (FC) (Pseudomonas aeruginosa [29]): 128
- fold change (FC) (Pseudomonas aeruginosa [30]): 128
- fold change (FC) (Pseudomonas aeruginosa [31]): 64
- fold change (FC) (Pseudomonas aeruginosa [32]): 256
- fold change (FC) (Pseudomonas aeruginosa [33]): 512
- fold change (FC) (Pseudomonas aeruginosa [34]): 128
- fold change (FC) (Pseudomonas aeruginosa [35]): 256
- fold change (FC) (Pseudomonas aeruginosa [36]): 4
- fold change (FC) (Pseudomonas aeruginosa [37]): 4
- fold change (FC) (Pseudomonas aeruginosa [38]): 4
- fold change (FC) (Pseudomonas aeruginosa [39]): 64
- fold change (FC) (Pseudomonas aeruginosa [40]): 16
- fold change (FC) (Pseudomonas aeruginosa [41]): 128
- fold change (FC) (Pseudomonas aeruginosa [42]): >128
- Activity (Pseudomonas aeruginosa [43]): Active
- Activity (HEK293): Non-toxic
- Activity (HepG2): Active
